Assay results: US11566007B2, “Ras inhibitors” (Revolution Medicines, Inc., priority 2019, dated 2023)

Assays:
[1] = system: NCI-H358 cells (K-Ras G12C); assay: Potency assay: pERK in NCI-H358 cells; format: cell-based, human; conditions: Homo sapiens, NCI-H358; H358 KRAS G12C; read-out: pERK EC50
Outline: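 Inhibition of cellular pERK after a 4 h treatment, detected by AlphaLISA or In-Cell Western. IC50 from a four-parameter concentration-response fit.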

NCI-H358 (K-Ras G12C) = assay: CellTiter-Glo cell viability assay, NCI-H358; format: cell-based, human; conditions: Homo sapiens, NCI-H358, 120 h, NCI-H358, 5-day treatment; class symbols; read-out: Additional H358 Cell Viability assay data (K-Ras G12C, IC50)
Outline: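 Steps: compound dispensed into wells holding cells; incubation to day 5; ~30 min room-temperature equilibration; luminescence read; sample signal divided by mean DMSO signal, times 100; four-parameter logistic curve fit.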

K-Ras G12C = K-Ras G12C (Homo sapiens (Human), UniProt P01116+P62937, G12C); assay: Ras-Raf (BRAF RBD) disruption / FRET / MOA assay, KRAS G12C; format: biochemical; conditions: KRAS G12C; Ras-Raf disruption/FRET/MOA assay; read-out: IC50* KRAS G12C FRET data
Sequence of K-Ras G12C (P01116-2 other isoform, or with tags, fused parts or gaps G12C): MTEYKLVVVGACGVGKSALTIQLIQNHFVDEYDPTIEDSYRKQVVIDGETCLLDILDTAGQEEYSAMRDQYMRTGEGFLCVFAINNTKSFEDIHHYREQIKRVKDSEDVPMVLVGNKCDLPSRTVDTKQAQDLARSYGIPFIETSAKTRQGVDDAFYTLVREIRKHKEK
Sequence of K-Ras G12C (P62937 whole entry): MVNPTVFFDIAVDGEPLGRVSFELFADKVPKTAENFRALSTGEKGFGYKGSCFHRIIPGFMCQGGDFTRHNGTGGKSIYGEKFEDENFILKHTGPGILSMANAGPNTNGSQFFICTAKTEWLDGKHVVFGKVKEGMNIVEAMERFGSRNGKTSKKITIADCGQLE
Outline: (§1)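 Compounds, top final concentration 30 μM in 10-point 3-fold series, incubated 3 hours at 25° C with nucleotide-loaded Ras, cyclophilin A and BRAF RBD.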

K-Ras G13C = K-Ras G13C (Homo sapiens (Human), UniProt P01116+P62937, G13C); assay: Ras-Raf (BRAF RBD) disruption / FRET / MOA assay, KRAS G13C; format: biochemical; conditions: KRAS G13C; Ras-Raf disruption/FRET/MOA assay; read-out: IC50* KRAS G13C FRET data
Sequence of K-Ras G13C (P01116-2 other isoform, or with tags, fused parts or gaps G13C): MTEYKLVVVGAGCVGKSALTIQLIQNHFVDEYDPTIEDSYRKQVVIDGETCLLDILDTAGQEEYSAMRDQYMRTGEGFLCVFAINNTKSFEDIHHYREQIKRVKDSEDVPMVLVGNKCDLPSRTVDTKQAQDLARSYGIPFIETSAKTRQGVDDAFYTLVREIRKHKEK
Sequence of K-Ras G13C (P62937 whole entry): as the sequence (P62937 whole entry) above
Outline: as §1

KRAS G12S = KRAS G12S (Homo sapiens (Human), UniProt P01116+P62937, G12S); assay: Ras-Raf (BRAF RBD) disruption / FRET / MOA assay, KRAS G12S; format: biochemical; conditions: Ras-Raf disruption/FRET/MOA assay; class symbols; read-out: KRAS G12S FRET data IC50
Sequence of KRAS G12S (P01116-2 other isoform, or with tags, fused parts or gaps G12S): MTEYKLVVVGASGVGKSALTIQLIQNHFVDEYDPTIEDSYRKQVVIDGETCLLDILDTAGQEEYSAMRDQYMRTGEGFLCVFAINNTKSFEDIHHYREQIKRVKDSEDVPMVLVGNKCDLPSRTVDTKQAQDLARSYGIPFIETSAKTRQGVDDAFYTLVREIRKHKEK
Sequence of KRAS G12S (P62937 whole entry): as the sequence (P62937 whole entry) above
Outline: as §1

KRAS G12D = KRAS G12D (Homo sapiens (Human), UniProt P01116+P62937, G12D); assay: Ras-Raf (BRAF RBD) disruption / FRET / MOA assay, KRAS G12D; format: biochemical; conditions: Ras-Raf disruption/FRET/MOA assay; class symbols; read-out: KRAS G12D FRET data IC50
Sequence of KRAS G12D (P01116-2 other isoform, or with tags, fused parts or gaps G12D): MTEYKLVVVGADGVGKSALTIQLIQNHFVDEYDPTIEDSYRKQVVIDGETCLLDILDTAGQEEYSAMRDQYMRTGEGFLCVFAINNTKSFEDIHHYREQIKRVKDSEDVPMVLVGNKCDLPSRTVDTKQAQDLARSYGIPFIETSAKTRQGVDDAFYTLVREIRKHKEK
Sequence of KRAS G12D (P62937 whole entry): as the sequence (P62937 whole entry) above
Outline: as §1

KRAS G12V = KRAS G12V (Homo sapiens (Human), UniProt P01116+P62937, G12V); assay: Ras-Raf (BRAF RBD) disruption / FRET / MOA assay, KRAS G12V; format: biochemical; conditions: read-out: IC50* KRAS G12V FRET data
Sequence of KRAS G12V (P01116-2 other isoform, or with tags, fused parts or gaps G12V): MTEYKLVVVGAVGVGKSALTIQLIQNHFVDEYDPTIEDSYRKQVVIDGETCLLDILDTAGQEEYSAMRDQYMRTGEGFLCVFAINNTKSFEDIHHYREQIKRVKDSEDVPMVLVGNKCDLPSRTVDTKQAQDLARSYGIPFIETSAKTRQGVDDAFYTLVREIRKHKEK
Sequence of KRAS G12V (P62937 whole entry): as the sequence (P62937 whole entry) above
Outline: as §1

KRAS WT = KRAS WT (Homo sapiens (Human), UniProt P01116+P62937); assay: Ras-Raf (BRAF RBD) disruption / FRET / MOA assay, KRAS WT; format: biochemical; conditions: read-out: IC50* KRAS WT FRET data
Sequence of KRAS WT (P01116-2 other isoform, or with tags, fused parts or gaps): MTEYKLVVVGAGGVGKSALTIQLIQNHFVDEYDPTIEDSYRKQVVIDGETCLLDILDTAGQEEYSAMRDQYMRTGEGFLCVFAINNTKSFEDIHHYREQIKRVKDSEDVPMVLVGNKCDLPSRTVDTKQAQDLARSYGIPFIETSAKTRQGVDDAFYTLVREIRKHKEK
Sequence of KRAS WT (P62937 whole entry): as the sequence (P62937 whole entry) above
Outline: as §1

KRAS G13D = KRAS G13D (Homo sapiens (Human), UniProt P01116+P62937, G13D); assay: Ras-Raf (BRAF RBD) disruption / FRET / MOA assay, KRAS G13D; format: biochemical; conditions: read-out: IC50* KRAS G13D FRET data
Sequence of KRAS G13D (P01116-2 other isoform, or with tags, fused parts or gaps G13D): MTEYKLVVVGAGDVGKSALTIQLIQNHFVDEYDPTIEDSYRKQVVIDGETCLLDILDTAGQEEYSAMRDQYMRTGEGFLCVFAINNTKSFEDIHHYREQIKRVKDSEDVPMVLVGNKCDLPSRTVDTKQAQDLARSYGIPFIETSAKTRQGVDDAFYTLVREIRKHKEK
Sequence of KRAS G13D (P62937 whole entry): as the sequence (P62937 whole entry) above
Outline: as §1

NRAS G12C = NRAS G12C (Homo sapiens (Human), UniProt P01111+P62937, G12C); assay: Ras-Raf (BRAF RBD) disruption / FRET / MOA assay, NRAS G12C; format: biochemical; conditions: read-out: IC50* NRAS G12C FRET data
Sequence of NRAS G12C (P01111 whole entry G12C): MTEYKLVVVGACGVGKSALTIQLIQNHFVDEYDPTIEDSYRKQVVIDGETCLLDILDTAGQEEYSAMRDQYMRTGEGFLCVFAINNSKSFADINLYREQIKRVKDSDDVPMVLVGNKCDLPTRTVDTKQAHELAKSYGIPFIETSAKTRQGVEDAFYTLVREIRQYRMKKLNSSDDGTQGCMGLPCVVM
Sequence of NRAS G12C (P62937 whole entry): as the sequence (P62937 whole entry) above
Outline: as §1

Row | Structure (SMILES) | EC50 [1] [µM] | IC50 (NCI-H358 (K-Ras G12C)) [nM] | IC50 (K-Ras G12C) [nM] | IC50 (K-Ras G13C) [nM] | IC50 (KRAS G12S) [nM] | IC50 (KRAS G12D) [µM] | IC50 (KRAS G12V) [nM] | IC50 (KRAS WT) [nM] | IC50 (KRAS G13D) [nM] | IC50 (NRAS G12C) [nM]
1 | C=CC(=O)N1CCN(C(=O)N(C)[C@H](C(=O)N[C@H]2Cc3nc(cs3)-c3ccc4c(c3)c(c(-c3cccnc3[C@H](C)OC)n4CC)CC(C)(C)COC(=O)[C@@H]3CCCN(N3)C2=O)C(C)C)C2(CC2)C1 (atropisomer, axis not shown) [Example A395] | < 5 | < 10 | 100 to 1000 | 100 to 1000 | 100 to 1000 | 1 to 10 | 100 to 1000 | 100 to 1000 | 100 to 1000 | 100 to 1000
2 | C=CC(=O)N1C[C@@H](F)[C@](F)(C(=O)N(C)[C@H](C(=O)N[C@H]2Cc3cccc(c3)-c3ccc4c(c3)c(c(-c3cccnc3[C@H](C)OC)n4CC)CC(C)(C)COC(=O)[C@@H]3CCCN(N3)C2=O)C(C)C)C1 (atropisomer, axis not shown) [Example A396] | < 5 | < 10 | 10 to 100 | 10 to 100 | 1000 to 10000 | 1 to 10 | 1000 to 10000 | 1000 to 10000 | 1000 to 10000 | 10 to 100
3 | C=CC(=O)N1C[C@H](F)[C@](F)(C(=O)N(C)[C@H](C(=O)N[C@H]2Cc3cccc(c3)-c3ccc4c(c3)c(c(-c3cccnc3[C@H](C)OC)n4CC)CC(C)(C)COC(=O)[C@@H]3CCCN(N3)C2=O)C(C)C)C1 (atropisomer, axis not shown) [Example A397] | < 5 | < 10 | 10 to 100 | 10 to 100 | 100 to 1000 | 1 to 10 | 100 to 1000 | 100 to 1000 | 100 to 1000 | 10 to 100
4 | C=CC(=O)N1CC[C@H](C(=O)N(CC)[C@H](C(=O)N[C@H]2Cc3cccc(c3)-c3ccc4c(c3)c(c(-c3cccnc3[C@H](C)OC)n4CC)CC(C)(C)COC(=O)[C@@H]3CCCN(N3)C2=O)C(C)C)C1 (atropisomer, axis not shown) [Example A399] | < 5 | 10 to 100 | 100 to 1000 | 1000 to 10000 | 1000 to 10000 | > 10 | 1000 to 10000 | 1000 to 10000 | 1000 to 10000 | 100 to 1000
5 | C=CC(=O)N1C[C@H](C(=O)N(C)[C@H](C(=O)N[C@H]2Cc3cccc(c3)-c3ccc4c(c3)c(c(-c3cccnc3[C@H](C)OC)n4CC)CC(C)(C)COC(=O)[C@@H]3CCCN(N3)C2=O)C(C)C)[C@H](C(F)(F)F)C1 (atropisomer, axis not shown) [Example A400] | < 5 | 10 to 100 | 10 to 100 | 1000 to 10000 | > 10000 | > 10 | > 10000 | > 10000 | > 10000 | 10 to 100
6 | CC#CC(=O)N1C[C@H](C)[C@H](C(=O)N(C)[C@H](C(=O)N[C@H]2Cc3cccc(c3)-c3ccc4c(c3)c(c(-c3cccnc3[C@H](C)OC)n4CC)CC(C)(C)COC(=O)[C@@H]3CCCN(N3)C2=O)C2CCCC2)C1 (atropisomer, axis not shown) [Example A402] | < 5 | 10 to 100 | 100 to 1000 | 1000 to 10000 | 1000 to 10000 | > 10 | 1000 to 10000 | 1000 to 10000 | > 10000 | 100 to 1000
7 | C=CC(=O)N1C[C@@H](C)N(C(=O)N(C)[C@H](C(=O)N[C@H]2Cc3nc(cs3)-c3ccc4c(c3)c(c(-c3cccnc3[C@H](C)OC)n4CC)CC(C)(C)COC(=O)[C@@H]3CCCN(N3)C2=O)C(C)C)C[C@H]1C (atropisomer, axis not shown) [Example A406] | < 5 | 10 to 100 | 100 to 1000 | 100 to 1000 | 100 to 1000 | 1 to 10 | 100 to 1000 | 100 to 1000 | 100 to 1000 | 100 to 1000
8 | C=CC(=O)N1C[C@@H]2C[C@H]1CN2C(=O)N(C)[C@H](C(=O)N[C@H]1Cc2nc(cs2)-c2ccc3c(c2)c(c(-c2cccnc2[C@H](C)OC)n3CC)CC(C)(C)COC(=O)[C@@H]2CCCN(N2)C1=O)C(C)C (atropisomer, axis not shown) [Example A409] | < 5 | 10 to 100 | 100 to 1000 | 100 to 1000 | 100 to 1000 | 0.1 to 1 | 100 to 1000 | 100 to 1000 | 1000 to 10000 | 100 to 1000
9 | CCn1c(-c2cccnc2[C@H](C)OC)c2c3cc(ccc31)-c1csc(n1)C[C@H](NC(=O)[C@H](C(C)C)N1CC[C@]3(CCN(C(=O)C#CC(C)(C)N(C)C)C3)C1=O)C(=O)N1CCC[C@H](N1)C(=O)OCC(C)(C)C2 (atropisomer, axis not shown) [Example A411] | < 5 | < 10 | < 10 | 100 to 1000 | 1000 to 10000 | 1 to 10 | 1000 to 10000 | 1000 to 10000 | 1000 to 10000 | < 10
10 | CC#CC(=O)N1CC[C@]2(CCN([C@H](C(=O)N[C@H]3Cc4cccc(c4)-c4ccc5c(c4)c(c(-c4cccnc4[C@H](C)OC)n5CC)CC(C)(C)COC(=O)[C@@H]4CCCN(N4)C3=O)C(C)C)C2=O)C1 (atropisomer, axis not shown) [Example A412] | < 5 | 10 to 100 | 100 to 1000 | 100 to 1000 | 1000 to 10000 | 1 to 10 | 1000 to 10000 | 1000 to 10000 | 1000 to 10000 | 100 to 1000
11 | CC#CC(=O)N1C[C@H](C)[C@H](C(=O)N(C)[C@H](C(=O)N[C@H]2Cc3cccc(c3)-c3ccc4c(c3)c(c(-c3cccnc3[C@H](C)OC)n4CC)CC(C)(C)COC(=O)[C@@H]3CCCN(N3)C2=O)C(C)C)C1 (atropisomer, axis not shown) [Example A413] | < 5 | 10 to 100 | 100 to 1000 | 1000 to 10000 | 1000 to 10000 | > 10 | 1000 to 10000 | 1000 to 10000 | 1000 to 10000 | 100 to 1000
12 | CCn1c(-c2cccnc2[C@H](C)OC)c2c3cc(ccc31)-c1cccc(c1)C[C@H](NC(=O)[C@H](C(C)C)N1CC[C@@]3(CCN(C(=O)C#CC(C)(C)N(C)C)C3)C1=O)C(=O)N1CCC[C@H](N1)C(=O)OCC(C)(C)C2 (atropisomer, axis not shown) [Example A414] | < 5 | < 10 | < 10 | 1000 to 10000 | 1000 to 10000 | > 10 | 1000 to 10000 | > 10000 | > 10000 | < 10
13 | C=CC(=O)N1CCC12CCN(C(=O)N(C)[C@H](C(=O)N[C@H]1Cc3nc(cs3)-c3ccc4c(c3)c(c(-c3cccnc3[C@H](C)OC)n4CC)CC(C)(C)COC(=O)[C@@H]3CCCN(N3)C1=O)C(C)C)CC2 (atropisomer, axis not shown) [Example A415] | < 5 | 10 to 100 | 100 to 1000 | 100 to 1000 | 100 to 1000 | 1 to 10 | 100 to 1000 | 100 to 1000 | 100 to 1000 | 100 to 1000
14 | C=CC(=O)N1C[C@@H](C)N(C(=O)N(C)[C@H](C(=O)N[C@H]2Cc3nc(cs3)-c3ccc4c(c3)c(c(-c3cccnc3[C@H](C)OC)n4CC)CC(C)(C)COC(=O)[C@@H]3CCCN(N3)C2=O)C(C)C)C[C@@H]1C (atropisomer, axis not shown) [Example A418] | < 5 | 10 to 100 | 10 to 100 | 10 to 100 | 10 to 100 | 0.1 to 1 | 10 to 100 | 10 to 100 | 100 to 1000 | 10 to 100
15 | C=CC(=O)N1CC2(C1)CN(C(=O)N(C)[C@H](C(=O)N[C@H]1Cc3nc(cs3)-c3ccc4c(c3)c(c(-c3cccnc3[C@H](C)OC)n4CC)CC(C)(C)COC(=O)[C@@H]3CCCN(N3)C1=O)C(C)C)C2 (atropisomer, axis not shown) [Example A419] | < 5 | < 10 | 100 to 1000 | 100 to 1000 | 100 to 1000 | 1 to 10 | 100 to 1000 | 100 to 1000 | 1000 to 10000 | 10 to 100
